Values of other authors, collected in US20140088140A1 (TEVA PHARMACEUTICAL INDUSTRIES, LTD., priority 2012, published 2014).

Key:
[1] = test system: Huntington's disease patients; details: 45 mg or 90 mg daily for 6 months
[2] = test system: patients with HD
[3] = test system: genes related to antigen presentation and corresponding inflammatory pathways; details: mainly via the NFkB pathway
[4] = test system: Th1 / Th2 T helper cells; details: animal studies
[5] = in vivo
[6] = test system: Multiple Sclerosis; details: two phase III trials

SMILES | tertiary endpoint UHDRS-TMS (changes in motor function) and individual mMS items (gait, dysarthria) [1] | symptomatic relief incl. hand movements, gait and balance [2] | expression of genes related to antigen presentation and inflammatory pathways [3] | Th1 to Th2 shift [4] | oral bioavailability [5] | safety and tolerability profile [6]
CCCN1CCC(c2cccc(S(C)(=O)=O)c2)CC1 [pridopidine, 4-[3-(methylsulfonyl)phenyl]-1-propyl-piperidine] | statistically significant effect of treatment | significant symptomatic relief | – | – | – | –
CCN(C(=O)c1c(O)c2c(Cl)cccc2n(C)c1=O)c1ccccc1 [laquinimod] | – | – | induced suppression | shift with an anti-inflammatory profile | high oral bioavailability | favorable safety and tolerability profile
